The target of the test is T1, human kinase Mps-1 (Homo sapiens, UniProt P33981).
T1 construct: N-terminally GST-tagged human full length recombinant Mps-1 kinase; GST (N); purchased Invitrogen, Karslruhe, Germany PV4071
T1 sequence (P33981 1-857): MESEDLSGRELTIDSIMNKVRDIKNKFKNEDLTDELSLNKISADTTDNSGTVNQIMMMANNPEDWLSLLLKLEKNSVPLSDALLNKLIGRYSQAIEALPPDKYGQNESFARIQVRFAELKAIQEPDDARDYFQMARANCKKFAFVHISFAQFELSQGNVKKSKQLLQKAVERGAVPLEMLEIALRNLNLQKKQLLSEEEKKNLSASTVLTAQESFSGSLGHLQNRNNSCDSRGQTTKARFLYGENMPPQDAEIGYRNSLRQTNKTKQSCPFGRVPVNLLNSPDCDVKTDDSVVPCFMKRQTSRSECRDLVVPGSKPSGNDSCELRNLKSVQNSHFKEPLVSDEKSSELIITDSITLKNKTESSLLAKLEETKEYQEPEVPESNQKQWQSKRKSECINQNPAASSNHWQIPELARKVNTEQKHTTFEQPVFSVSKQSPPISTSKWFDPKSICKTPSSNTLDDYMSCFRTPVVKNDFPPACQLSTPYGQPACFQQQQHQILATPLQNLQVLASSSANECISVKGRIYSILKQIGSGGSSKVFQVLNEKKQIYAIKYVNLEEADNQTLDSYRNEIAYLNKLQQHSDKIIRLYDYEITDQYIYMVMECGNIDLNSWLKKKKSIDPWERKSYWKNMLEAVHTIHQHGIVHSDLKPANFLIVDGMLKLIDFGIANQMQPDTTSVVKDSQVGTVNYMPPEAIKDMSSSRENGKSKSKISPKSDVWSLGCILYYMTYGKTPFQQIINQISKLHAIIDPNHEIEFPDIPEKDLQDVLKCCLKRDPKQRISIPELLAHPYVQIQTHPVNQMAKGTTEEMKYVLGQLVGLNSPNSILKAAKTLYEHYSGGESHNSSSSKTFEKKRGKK
As to the kind of experiment: Mps-1 kinase assay (TR-FRET). As to conditions: N-terminally GST-tagged human full length recombinant Mps-1; 10 μM ATP; 1 μM peptide substrate; 15 min pre-incubation; 60 min at 22° C. In kind it is biochemical. The procedure, abridged: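 TR-FRET read-out: after 1 h binding at 22° C, Eu-labelled anti-phospho-Ser/Thr antibody transfers to SA-XLent on the phosphorylated biotinylated peptide. The enzyme is GST-tagged full-length human Mps-1, typically about 1 nM final, in the linear range.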

The record followed here is patent US20140187548A1, “6 SUBSTITUTED IMIDAZOPYRAZINES FOR USE AS MPS-1 AND TKK INHIBITORS IN THE TREATMENT OF HYPERPROLIFERATIVE DISORDERS” (BAYER INTELLECTUAL PROPERTY GMBH, priority 2010, published 2014).

The structures appear in SMILES notation.

What is called IC50 is the concentration at which inhibition is half-maximal. On to `O=C(NC1CC1)c1ccc(-c2cnc3c(NCCc4ccncc4)nc(-c4ccccc4)cn23)cc1` [Example 2-41, N-cyclopropyl-4-(6-phenyl-8-{[2-(pyridin-4-yl)ethyl]amino}imidazo[1,2-a]pyrazin-3-yl) benzamide], for which the IC50 was 5.5 nM. The value for `NC(=O)CCNc1nc(-c2ccccc2)cn2c(-c3ccc(C(=O)NC4CC4)cc3)cnc12` [Example 2-42, 4-{8-[(3-amino-3-oxopropyl)amino]-6-phenylimidazo[1,2-a]pyrazin-3-yl}-N-cyclopropyl-benzamide] was 5 nM; that for `O=C(NC1CC1)c1ccc(-c2cnc3c(NCCC(F)(F)F)nc(-c4ccccc4)cn23)cc1` [Example 2-43, N-cyclopropyl-4-{6-phenyl-8-[(3,3,3-trifluoropropyl)amino]imidazo[1,2-a]pyrazin-3-yl} benzamide] was 1.1 nM; that for `CN(C)c1ccc(CNc2nc(-c3ccccc3)cn3c(-c4ccc(C(=O)NC5CC5)cc4)cnc23)cc1` [Example 2-44, N-cyclopropyl-4-(8-{[4-(dimethylamino)benzyl]amino}-6-phenylimidazo[1,2-a]pyrazin-3-yl)benzamide] was 18.1 nM. Consider `O=C(NC1CC1)c1ccc(-c2cnc3c(NCCCCN4CCCC4)nc(-c4ccccc4)cn23)cc1` [Example 2-45, N-cyclopropyl-4-(6-phenyl-8-{[4-(pyrrolidin-1-yl)butyl]amino}imidazo[1,2-a]pyrazin-3-yl) benzamide], for which the 50% inhibitory concentration (IC50) was determined as 11.2 nM. As for `COCCCNc1nc(-c2ccccc2)cn2c(-c3ccc(C(=O)NC4CC4)cc3)cnc12` [Example 2-46, N-cyclopropyl-4-{8-[(3-methoxypropyl)amino]-6-phenylimidazo[1,2-a]pyrazin-3-yl}benzamide], the figure is 3.5 nM. Turning to `O=C(NC1CC1)c1ccc(-c2cnc3c(NCCN4CCNC4=O)nc(-c4ccccc4)cn23)cc1` [Example 2-47, N-cyclopropyl-4-(8-{[2-(2-oxoimidazolidin-1-yl)ethyl]amino}-6-phenylimidazo[1,2-a]pyrazin-3-yl)benzamide], the IC50 was found to be 20 nM.

On to `C[S+]([O-])CCNc1nc(-c2ccccc2)cn2c(-c3ccc(C(=O)NC4CC4)cc3)cnc12` (stereo not shown) [Example 2-48, N-cyclopropyl-4-(8-{[2-(methylsulfinyl)ethyl]amino}-6-phenylimidazo[1,2-a]pyrazin-3-yl)benzamide], for which the 50% inhibitory concentration (IC50) is 3.4 nM. `CNC(=O)CNc1nc(-c2ccccc2)cn2c(-c3ccc(C(=O)NC4CC4)cc3)cnc12` [Example 2-49, N-cyclopropyl-4-(8-{[2-(methylamino)-2-oxoethyl]amino}-6-phenylimidazo[1,2-a]pyrazin-3-yl)benzamide]: the IC50 came to 32.2 nM. Regarding `O=C(NC1CC1)c1ccc(-c2cnc3c(NCCc4cccnc4)nc(-c4ccccc4)cn23)cc1` [Example 2-50, N-cyclopropyl-4-(6-phenyl-8-{[2-(pyridin-3-yl)ethyl]amino}imidazo[1,2-a]pyrazin-3-yl) benzamide], the half-maximal inhibitory concentration (IC50) amounted to 8 nM. Regarding `O=C(NC1CC1)c1ccc(-c2cnc3c(NCCCC(F)(F)F)nc(-c4ccccc4)cn23)cc1` [Example 2-51, N-cyclopropyl-4-{6-phenyl-8-[(4,4,4-trifluorobutyl)amino]imidazo[1,2-a]pyrazin-3-yl}benzamide], the IC50 worked out at 2.4 nM. As for `O=C(NC1CC1)c1ccc(-c2cnc3c(NCC(F)F)nc(-c4ccccc4)cn23)cc1` [Example 2-52, N-cyclopropyl-4-{8-[(2,2-difluoroethyl)amino]-6-phenylimidazo[1,2-a]pyrazin-3-yl}benzamide], the IC50 is 3.1 nM.

Regarding `Cn1ccc(CNc2nc(-c3ccccc3)cn3c(-c4ccc(C(=O)NC5CC5)cc4)cnc23)n1` [Example 2-53, N-cyclopropyl-4-(8-{[(1-methyl-1H-pyrazol-3-yl)methyl]amino}-6-phenylimidazo [1,2-a]pyrazin-3-yl)benzamide], the half-inhibitory concentration (IC50) stood at 5.6 nM.
